Legend:
[1] = tested on: SKBR-3 cells with FcγRIIIa reporter cells; assay: ADCC Reporter Bioassay (Promega); format: cell-based, human; conditions: SKBR-3, V158 effector cells
Description: In a different ADCC setup, the ADCC Reporter Bioassay (Promega) was used. The bioassay uses engineered Jurkat cells stably expressing the FcYRIIIa receptor, V158 (high affinity) or F158 (low affinity) variant, and an NFAT response element driving expression of firefly luciferase. The assay was validated by comparing data obtained with the ADCC Reporter Bioassay to the classical ^51Cr release assay. The ADCC assays were performed using the Promega ADCC Bioassay kit using 384 white well plates. In this experimental setup SKBR-3 cells were plated at a density of 1000 cells/well in 30 µl assay medium (RPMI with 4% low IgG serum) 20-24 H before the bioassay. The next day, the culture medium was removed. […] 10 µl antibody dilutions were added to the wells. The starting concentration of the antibody was 10 µg/ml and a 10 points semi-log fold serial dilution was generated to provide a full dose-response curve. Finally, 5 µl of ADCC Bioassay effector cells (15000 cells/well, V158) were added. The cells were incubated for 6 H at 37° C. Next, 15 µl BIO-Glo luciferase substrate was added and 5 minutes later luminescence was detected in a plate reader.
ADCC activity was measured by measuring luciferase activity. […] (FIG. 15)

AKT in JIMT-1 tumors = assay: Phosphoprotein analysis of JIMT-1 tumors by Luminex; format: in vivo, mice
Description: Tumors were flash-frozen and processed to powder. Tumor lysates were prepared to a concentration of 50 mg tumor/mL using cold BioRad Lysis Buffer (supplemented with 0.4% BioRad Factor 1, 0.2% BioRad Factor 2, and 2 mM PMSF) to the frozen powder samples, incubated at 4° C. on a rocker for 60 minutes to ensure complete lysis. The samples were centrifuged at 4° C. for 10 minutes at 16000 × g, and aliquoted. Total protein was determined using the Biorad DC Protein Assay reagents according to manufacturer’s instructions. Luminex Assay: The JIMT-1 tumor lysate samples were processed and analyzed for: Total AKT AKT(Ser473) and AKT(Thr308using commercially available Luminex kits from Millipore (Cat # 48-618MAG (Lot No. 2532050), 46-645MAG (Lot No. 46645 M-1K). Each sample was tested in duplicate. Dilutions were prepared in sample diluent to load a target of approximately 25 µg protein per well for all total and phosphorylated analyte determinations. The Millipore kits were used according to the manufacturer’s specifications.

N87 cells = assay: HRG driven N87 proliferation assay; format: cell-based, human
Description: Upregulation of NRG1-β1 is a key resistance mechanism against HER2 targeted therapies (Wilson, 2012). […] N87 cells were cultured in RPMI 1640 supplemented with 10% heat inactivated FBS. For the proliferation assay subconfluent cell cultures of N87 cells were washed with PBS trypsinized and trypsin was inactivated by adding culture medium. Cells were washed twice in large volumes of assay medium (RPMI 1640 medium containing 0.05% BSA and 10 µg/ml Holo Transferrin). Antibodies were diluted in a semi-log titration that varied from 1-0.0001 µg/ml. Cells were added at a density of 10000 cells/well in the presence of 100 ng/ml final concentration of HRG. The cells were cultivated for 3 days at 37° C., 5% CO2, in 95% relative humidity. ALAMAR BLUE™ (INVITROGEN®) was added according to the manufacturer’s instructions and incubated for 6 hours at 37° C., 5% CO2, in 95% relative humidity in the dark. Fluorescence was measured at 550 nm excitation with 590 nm emission wavelength.
Upregulation of NRG 1-β1 is a key resistance mechanism against HER2 targeted therapies (Wilson, 2012). […] To this aim N87 cells were cultured in RPMI 1640 supplemented with 10% heat inactivated FBS. […] Fluorescence was measured at 550 nm excitation with 590 nm emission wavelength.

[2] = tested on: HER2+, HER2++ and HER2+++ breast and gastric cancer cell lines; assay: FACS binding to cell lines with different HER2 levels; set-up: species or system human; conditions: HER2++ and HER2+ cells
Description: Cells were considered HER2+++ if they express millions of HER2 copies and/or are HER2 gene amplified. The following cell lines were used: MCF-7 (HER 2 +); MDA-MB-468 (HER2 +, MKN-45 (HER2 +), MDA-MB-175 (HER2+), MDA-MB-453 (HER2 ++), MDA-MB-361(HER2 ++), ZR-75-1(HER2 ++), JIMT-1 (HER2+++), BT-474 (HER2+++), SKBR-3 (HER2+++), SK-OV-3 (HER2+++), N87 (HER2+++). Cells of an exponentially grown culture were harvested by trypsin and diluted to 10^6 cells/ml in FACS buffer (PBS/0.5%BSA/0.5 mM EDTA). 1-2 10^5 cells were added to each well in a U-bottom 96 well plate. Cells were centrifuged for 2 minutes at 300 g at 4° C. Supernatant was discarded by inverting plate(s) above, followed by flicking once. 50 µl of each IgG sample was added in a serial dilution from 3.16 ng- 10 µg/ml and incubated for 1H on ice. Cells were centrifuged once, supernatant was removed and cells were washed twice with FACS buffer. 50 µl diluted 1:100 mouse anti human IgG gamma PE (INVITROGEN®) was added and incubated for 30-60 minutes on ice in the dark. […] Cells were analysed on a FACSCanto Flow cytometer in a HTS setting. The quantity of antibody bound was assessed by median fluorescence. Data were plotted and the area under the curve (AUC, a cumulative measurement of the median fluorescence intensity) was determined for each antibody per cell line tested (FIG. 26).

Q: For “PB4188: bispecific HER2xHER3 IgG: HER2 arm MF3958, HER3 arm MF3178”, which “ADCC potency compared to parental monoclonals or their combination” value [1] is on record?
A: The value was “higher ADCC potentency”.

Q: What about the “Akt expression in tumors compared to untreated tumors” value (AKT in JIMT-1 tumors; JIMT-1 tumors) of the same substance?
A: The value was “increase in Akt expression”.

Q: And the “Phosphorylation of AKT in tumors” value (AKT in JIMT-1 tumors; after two-weekly and four-weekly dose)?
A: The value was “completely inhibited”.

Q: What about the “Anti-proliferative activity on N87” value (N87 cells; 100 ng/ml HRG) of the same substance?
A: The value was “superior activity over anti-HER2 or anti-HER3 monoclonal antibodies”.

Q: What about the “Anti-proliferative activity on N87 versus PG3178” value (N87 cells; increasing HRG 0.04-39.5 nM) of the same substance?
A: The value was “superior activity compared to the parental anti-HER3 monoclonal antibody”.

Q: And the “Binding affinity compared to trastuzumab (AUC of median fluorescence)” value [2]?
A: The value was “higher binding affinity”.

Reference: patent publication US20230242669A1, “ANTIBODY THAT BINDS ERBB-2 AND ERBB-3” (Merus N.V., priority 2014, published 2023)
